{"source": "patent EP0694545B1", "about": "“Substituted dibenzoxazepine compounds, pharmaceutical compositions and methods of use” (G.D. SEARLE & CO., priority 1991, dated 1992)", "tested_on": "Charles River male albino mice", "assay": "PBQ Writhing Assay (analgesic activity)", "assay_type": "in vivo", "set-up": "key to PBQ WRITHING ASSAY I.G. (Active / *) / PBQ WRITHING ASSAY S.C. (Active / *): *: Indicates that, in accordance with the particular conditions set forth above for the Writhing Assay, and under the test criteria employed for that assay, after the administration of an initial screening dosage of 30 mg per kilogram of the compound, the number of writhes elicited by a mouse injected with PBQ was not equal to, or less than, one-half the median number of writhes recorded for the saline-treated control group of mice that day", "conditions": "for PBQ WRITHING ASSAY I.G. (Active / *): intragastric; for PBQ WRITHING ASSAY I.G. (Active / *) / PBQ WRITHING ASSAY S.C. (Active / *): initial screening dose 30 mg per kilogram, 30 min before PBQ i.p., writhes counted for ten minutes; for PBQ WRITHING ASSAY S.C. (Active / *): subcutaneous", "from_the_text": "The Writhing Assay is one of the most widely-used experimental procedures for measuring the analgesic activity of different narcotic and nonnarcotic analgesic agents, and involves the continuous, chemically-induced pain of visceral origin to an animal, such as a mouse or rat. [Gyires et al., Arch. int. Pharmacodyn, 267, 131-140 (1984); […] al., Fed. Proc., 15, 494 (1956); Koster et al., Fed. Proc., 18, 412 (1959); and Witken et al., J. Pharmacol. exp. Ther., 133, 400-408 (1961).] Chemicals which may be used to induce this pain include phenylbenzoquinone (PBQ) and acetic acid. As a result of the chemical irritation to the animal, a characteristic stretching and writhing of the animal (dorsiflexion of the animal's back, extension of its hindlimbs and the strong contraction of its abdominal musculature) will generally occur. […] Drugs which reduce the number of writhes of the animal appear to restore the normal nociceptive threshold of the animal. Charles River male albino mice, weighing 20 to 30 grams were used in this assay. Thirty minutes after subcutaneous or intragastric administration to ten mice of 30 mg per kilogram of body weight of a compound of the present invention (\"test compound\"), […] per 10 g of body weight of a 0.025% w/v solution of PBQ was injected intraperitoneally into each mouse. Ten mice which were given saline in place of a test compound of the invention were used as a control group. Five minutes later, each mouse was individually placed into a glass beaker for observation, and the number of writhes occurring during the following ten-minute period was counted. A test compound was considered to have produced analgesia in a mouse if, in accordance with the conditions set forth above, and under the test criteria employed for this assay, after the administration of 30 mg per kilogram of body weight of a compound of the present invention to the mouse, the number of writhes elicited by a mouse injected with PBQ was equal to, or less than, one-half the median number of writhes recorded for the saline-treated control group of mice that day, as described by Taber in \"Predictive Value of Analgesic Assays in Mice and Rats,\" Advances in Biochemical Psychopharmacology, 8, 191 (1974). The standard initial screening dose of a test compound employed in this assay was […] for both routes of administration. If this initial screening dose of the test compound produced analgesia in seven of ten mice, then the effect of additional doses of the test compound on the writhing response was evaluated, and then the ED50 dose was generally calculated. (The slopes of the dose-response curves for all test compounds analyzed were compared as described by Tallarida and Murray, Manual of Pharmacologic Calculations, Page 11 (Springer Verlag, New York, 1981)).", "note": "Counter-ions that a name gives are not always drawn.", "data": [{"compound": "O=C(CCCc1ccncc1)NNC(=O)N1Cc2ccccc2Oc2ccc(Cl)cc21", "note": "[Example 31, 8-chlorodibenz[b,f][1,4]oxazepine-10(11H)-carboxylic acid, 2-[1-oxo-4-(4-pyridinyl)butyl]hydrazide]", "values": [{"measurement": "PBQ WRITHING ASSAY I.G. (Active / *)", "value": "Active"}, {"measurement": "PBQ WRITHING ASSAY S.C. (Active / *)", "value": "Active"}]}, {"compound": "O=C(CCc1cccnc1)NNC(=O)N1Cc2ccccc2Oc2ccc(Cl)cc21", "note": "[Example 8, 8-chlorodibenz[b,f][1,4]oxazepine-10(11H)-carboxylic acid, 2-[1-oxo-3-(3-pyridinyl)propyl]hydrazide, monohydrochloride]", "values": [{"measurement": "PBQ WRITHING ASSAY I.G. (Active / *)", "value": "Active"}, {"measurement": "PBQ WRITHING ASSAY S.C. (Active / *)", "value": "Active"}]}, {"compound": "Cl.O=C(NNC(=O)N1Cc2ccccc2Oc2ccc(Cl)cc21)c1cccnc1", "note": "[Example 18, 8-chlorodibenz[b,f][1,4]oxazepine-10(11H)-carboxylic acid, 2-(3-pyridinylcarbonyl)hydrazide, monohydrochloride]", "values": [{"measurement": "PBQ WRITHING ASSAY I.G. (Active / *)", "value": "*"}, {"measurement": "PBQ WRITHING ASSAY S.C. (Active / *)", "value": "*"}]}, {"compound": "Cl.O=C(NNC(=O)N1Cc2ccccc2Oc2ccc(Cl)cc21)c1ccccn1", "note": "[Example 19, 8-chlorodibenz[b,f][1,4]oxazepine-10(11H)-carboxylic acid, 2-(2-pyridinylcarbonyl)hydrazide, monohydrochloride]", "values": [{"measurement": "PBQ WRITHING ASSAY I.G. (Active / *)", "value": "*"}, {"measurement": "PBQ WRITHING ASSAY S.C. (Active / *)", "value": "*"}]}, {"compound": "O=C(/C=C/c1cccnc1)NNC(=O)N1Cc2ccccc2Oc2ccc(Cl)cc21", "note": "[Example 7, 8-chlorodibenz[b,f][1,4]oxazepine-10(11H)-carboxylic acid, 2-[1-oxo-3-(3-pyridinyl)-2E-propenyl]hydrazide]", "values": [{"measurement": "PBQ WRITHING ASSAY I.G. (Active / *)", "value": "Active"}, {"measurement": "PBQ WRITHING ASSAY S.C. (Active / *)", "value": "Active"}]}, {"compound": "Cl.O=C(Cc1cccnc1)NNC(=O)N1Cc2ccccc2Oc2ccc(Cl)cc21", "note": "[Example 22, 8-chlorodibenz[b,f][1,4]oxazepine-10(11H)-carboxylic acid, 2-(3-pyridinylacetyl)hydrazide, monohydrochloride]", "values": [{"measurement": "PBQ WRITHING ASSAY I.G. (Active / *)", "value": "*"}, {"measurement": "PBQ WRITHING ASSAY S.C. (Active / *)", "value": "Active"}]}, {"compound": "8-chlorodibenz[b,f][1,4loxazepine-10(11H)-carboxylic acid, 2-(2-pyridinylacetyl)hydrazide, monohydrochloride [Example 21]", "values": [{"measurement": "PBQ WRITHING ASSAY I.G. (Active / *)", "value": "*"}, {"measurement": "PBQ WRITHING ASSAY S.C. (Active / *)", "value": "*"}]}, {"compound": "O=C(NNC(=O)C(F)(F)Cc1ccccn1)N1Cc2ccccc2Oc2ccc(Cl)cc21", "note": "[Example 37, 8-chlorodibenz[b,f][1,4]oxazepine-10(11H)-carboxylic acid, 2-[2,2-difluoro-1-oxo-3-(2-pyridinyl)propyl]hydrazide]", "values": [{"measurement": "ED50", "setting": "Mus musculus, po, intragastric administration, read-out: PBQ WRITHING ASSAY (ED50 (mpk)) I.G.", "value": 9.7, "unit": "mg/kg"}, {"measurement": "PBQ WRITHING ASSAY I.G. (Active / *)", "value": "Active"}]}, {"compound": "Cl.O=C(NNC(=O)N1Cc2ccccc2Oc2ccc(Cl)cc21)c1ccncc1", "note": "[Example 17, 8-chlorodibenz[b,f][1,4]oxazepine-10(11H)-carboxylic acid, 2-(4-pyridinylcarbonyl)hydrazide, monohydrochloride]", "values": [{"measurement": "PBQ WRITHING ASSAY I.G. (Active / *)", "value": "*"}, {"measurement": "PBQ WRITHING ASSAY S.C. (Active / *)", "value": "*"}]}, {"compound": "Cl.O=C(CCCc1ccccn1)NNC(=O)N1Cc2ccccc2Oc2ccc(Cl)cc21", "note": "[Example 29, 8-chlorodibenz[b,f][1,4]oxazepine-10(11H)-carboxylic acid, 2-[1-oxo-4-(2-pyridinyl)butyl]hydrazide, monohydrochloride]", "values": [{"measurement": "PBQ WRITHING ASSAY I.G. (Active / *)", "value": "Active"}, {"measurement": "PBQ WRITHING ASSAY S.C. (Active / *)", "value": "Active"}]}, {"compound": "O=C(CCCCc1cccs1)NNC(=O)N1Cc2ccccc2Oc2ccc(Cl)cc21", "note": "[Example 33, β-chlorodibenz[b,f][1,4]oxazepine-10(11H)-carboxylic acid, 2-[1-oxo-5-(2-thienyl)pentyl]hydrazide]", "values": [{"measurement": "PBQ WRITHING ASSAY I.G. (Active / *)", "value": "*"}, {"measurement": "PBQ WRITHING ASSAY S.C. (Active / *)", "value": "*"}]}, {"compound": "8-chlorodibenz[b,f][1,4]oxazepine-10(11H)-carboxylic acid, 2-[1-oxo-4-(3-thienyl)-3E-butenyl]hydrazide [Example 13]", "values": [{"measurement": "PBQ WRITHING ASSAY I.G. (Active / *)", "value": "*"}, {"measurement": "PBQ WRITHING ASSAY S.C. (Active / *)", "value": "*"}]}, {"compound": "Cl.O=C(Cc1ccncc1)NNC(=O)N1Cc2ccccc2Oc2ccc(Cl)cc21", "note": "[Example 23, 8-chlorodibenz[b,f][1,4]oxazepine-10(11H)-carboxylic acid, 2-(4-pyridinylacetyl)hydrazide, monohydrochloride]", "values": [{"measurement": "PBQ WRITHING ASSAY I.G. (Active / *)", "value": "*"}, {"measurement": "PBQ WRITHING ASSAY S.C. (Active / *)", "value": "*"}]}, {"compound": "O=C(CCCc1ccsc1)NNC(=O)N1Cc2ccccc2Oc2ccc(Cl)cc21", "note": "[Example 16, 8-chlorodibenz[b,f][1,4]oxazepine-10(11H)-carboxylic acid, 2-[1-oxo-4-(3-thienyl)butyl]hydrazide]", "values": [{"measurement": "PBQ WRITHING ASSAY I.G. (Active / *)", "value": "Active"}, {"measurement": "PBQ WRITHING ASSAY S.C. (Active / *)", "value": "*"}]}, {"compound": "O=C(CCc1cccc[n+]1[O-])NNC(=O)N1Cc2ccccc2Oc2ccc(Cl)cc21", "note": "[Example 10, 8-chlorodibenz[b,f][1,4]oxazepine-10(11H)--carboxylic acid, 2-[1-oxo-3-(2-pyridinyl)propyl]hydrazide, N-oxide]", "values": [{"measurement": "PBQ WRITHING ASSAY I.G. (Active / *)", "value": "*"}, {"measurement": "PBQ WRITHING ASSAY S.C. (Active / *)", "value": "*"}]}, {"compound": "Cl.O=C(/C=C/c1ccncc1)NNC(=O)N1Cc2ccccc2Oc2ccc(Cl)cc21", "note": "[Example 27, 8-chlorodibenz[b,f][1,4]oxazepine-10(11H)-carboxylic acid, 2-[1-oxo-3-(4-pyridinyl)-2E-propenyl]hydrazide, monohydrochloride]", "values": [{"measurement": "PBQ WRITHING ASSAY I.G. (Active / *)", "value": "*"}, {"measurement": "PBQ WRITHING ASSAY S.C. (Active / *)", "value": "*"}]}, {"compound": "Cl.O=C(/C=C/c1ccccn1)NNC(=O)N1Cc2ccccc2Oc2ccc(Cl)cc21", "note": "[Example 20, 8-chlorodibenz[b,f][1,4]oxazepine-10(11H)-carboxylic acid, 2-[1-oxo-3-(2-pyridinyl)-2E-propenyl]hydrazide, monohydrochloride]", "values": [{"measurement": "PBQ WRITHING ASSAY I.G. (Active / *)", "value": "*"}, {"measurement": "PBQ WRITHING ASSAY S.C. (Active / *)", "value": "*"}]}, {"compound": "8-chlorodibenz[b,f][1,4]oxazepine-10(11H)-carboxylic acid, 2-[1-oxo-4-(3-thienyl)-3Z-butenyl]hydrazide [Example 14]", "values": [{"measurement": "PBQ WRITHING ASSAY I.G. (Active / *)", "value": "*"}, {"measurement": "PBQ WRITHING ASSAY S.C. (Active / *)", "value": "*"}]}]}
